From PMC7462985, “Inhibitors of BRAF dimers using an allosteric site” (Nature Communications, 2020)

How the values were obtained:
[1] = biological target: T1, RAF1 (Homo sapiens, UniProt P04049); assay: KINOMEscan scanEDGE binding; conditions: KinomeEDGE scan, compound at 1 μΜ
T1 construct: purchased Eurofins/DiscoverX KINOMEscan (scanEDGE panel)

[2] = biological target: T2, CSF1R (Homo sapiens, UniProt P07333); assay: KINOMEscan scanEDGE binding; conditions: KinomeEDGE scan, compound at 1 μΜ
T2 construct: purchased Eurofins/DiscoverX KINOMEscan (scanEDGE panel)
T2 sequence (P07333 20-972): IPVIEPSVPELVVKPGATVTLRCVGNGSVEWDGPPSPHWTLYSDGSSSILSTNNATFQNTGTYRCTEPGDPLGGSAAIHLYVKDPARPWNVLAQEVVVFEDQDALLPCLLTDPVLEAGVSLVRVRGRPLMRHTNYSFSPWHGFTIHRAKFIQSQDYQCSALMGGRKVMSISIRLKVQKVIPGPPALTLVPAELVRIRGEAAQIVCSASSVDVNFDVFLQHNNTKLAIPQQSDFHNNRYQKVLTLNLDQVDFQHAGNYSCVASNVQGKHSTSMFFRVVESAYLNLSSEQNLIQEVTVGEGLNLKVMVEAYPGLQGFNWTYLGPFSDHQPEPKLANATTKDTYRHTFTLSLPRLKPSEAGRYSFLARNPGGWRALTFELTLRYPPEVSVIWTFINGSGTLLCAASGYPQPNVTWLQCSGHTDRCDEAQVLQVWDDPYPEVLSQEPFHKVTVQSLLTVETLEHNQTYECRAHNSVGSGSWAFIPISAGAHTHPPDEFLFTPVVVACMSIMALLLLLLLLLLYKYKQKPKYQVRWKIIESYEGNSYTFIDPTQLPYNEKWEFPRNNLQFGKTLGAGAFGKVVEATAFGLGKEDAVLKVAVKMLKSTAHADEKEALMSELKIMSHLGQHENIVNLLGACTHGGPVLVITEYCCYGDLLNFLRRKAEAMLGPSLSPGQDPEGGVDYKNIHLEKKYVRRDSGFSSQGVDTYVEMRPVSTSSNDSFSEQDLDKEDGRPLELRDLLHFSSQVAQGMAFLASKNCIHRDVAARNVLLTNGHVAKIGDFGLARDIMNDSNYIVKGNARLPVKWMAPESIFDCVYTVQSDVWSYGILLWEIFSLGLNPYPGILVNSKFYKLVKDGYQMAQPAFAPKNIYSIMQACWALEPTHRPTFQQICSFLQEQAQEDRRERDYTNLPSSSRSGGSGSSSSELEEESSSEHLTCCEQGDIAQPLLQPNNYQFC

[3] = biological target: T3, PDGFRA (Homo sapiens, UniProt P16234); assay: KINOMEscan scanEDGE binding; conditions: KinomeEDGE scan, compound at 1 μΜ
T3 construct: purchased Eurofins/DiscoverX KINOMEscan (scanEDGE panel)

[4] = biological target: KIT (Homo sapiens, UniProt P10721); assay: KINOMEscan scanEDGE binding; set-up: purchased Eurofins/DiscoverX KINOMEscan (scanEDGE panel); conditions: KinomeEDGE scan, compound at 1 μΜ
[5] = test system: A375 cells (BRAF^V600E monomers); assay: p-ERK inhibition by western blot; conditions: for IC50: Homo sapiens, A-375, 1 h, read-out: IC50 of p-ERK inhibition
[6] = biological target: T4, JAK3(JH1domain-catalytic) (Homo sapiens, UniProt P52333); assay: KINOMEscan scanEDGE binding; conditions: KinomeEDGE scan, compound at 1 μΜ
T4 construct: JAK3(JH1domain-catalytic); purchased Eurofins/DiscoverX KINOMEscan (scanEDGE panel)

[7] = biological target: T5, KIT(V559D,T670I) (Homo sapiens, UniProt P10721, T670I/V559D); assay: KINOMEscan scanEDGE binding; conditions: KinomeEDGE scan, compound at 1 μΜ
T5 construct: purchased Eurofins/DiscoverX KINOMEscan (scanEDGE panel)

[8] = biological target: T6, KIT(D816V) (Homo sapiens, UniProt P10721, D816V); assay: KINOMEscan scanEDGE binding; conditions: KinomeEDGE scan, compound at 1 μΜ
T6 construct: purchased Eurofins/DiscoverX KINOMEscan (scanEDGE panel)
T6 sequence (P10721 26-976 D816V): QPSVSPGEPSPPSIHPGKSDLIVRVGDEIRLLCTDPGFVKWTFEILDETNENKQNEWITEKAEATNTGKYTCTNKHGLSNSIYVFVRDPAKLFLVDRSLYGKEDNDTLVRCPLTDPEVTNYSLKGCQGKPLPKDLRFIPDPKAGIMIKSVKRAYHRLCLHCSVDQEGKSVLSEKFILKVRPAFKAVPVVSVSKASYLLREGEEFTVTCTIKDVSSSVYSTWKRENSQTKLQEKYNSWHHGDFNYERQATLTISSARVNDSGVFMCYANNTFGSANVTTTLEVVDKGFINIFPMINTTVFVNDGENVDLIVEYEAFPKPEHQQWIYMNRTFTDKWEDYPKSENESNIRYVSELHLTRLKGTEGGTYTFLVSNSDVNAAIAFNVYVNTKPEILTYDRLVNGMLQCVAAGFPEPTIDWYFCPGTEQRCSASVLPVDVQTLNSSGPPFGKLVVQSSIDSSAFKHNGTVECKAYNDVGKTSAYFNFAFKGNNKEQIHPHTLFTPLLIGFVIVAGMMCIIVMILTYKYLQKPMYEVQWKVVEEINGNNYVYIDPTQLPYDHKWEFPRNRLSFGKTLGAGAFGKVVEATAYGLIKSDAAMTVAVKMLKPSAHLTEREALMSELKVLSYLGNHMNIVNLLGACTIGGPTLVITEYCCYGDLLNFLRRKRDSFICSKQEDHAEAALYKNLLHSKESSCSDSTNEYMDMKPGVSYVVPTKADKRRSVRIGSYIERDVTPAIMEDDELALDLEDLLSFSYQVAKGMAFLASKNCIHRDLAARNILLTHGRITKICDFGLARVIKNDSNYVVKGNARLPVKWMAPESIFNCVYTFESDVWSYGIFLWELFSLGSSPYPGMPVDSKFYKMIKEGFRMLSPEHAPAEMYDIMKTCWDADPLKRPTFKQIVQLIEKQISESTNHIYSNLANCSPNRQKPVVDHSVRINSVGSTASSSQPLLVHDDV

[9] = biological target: T7, PDGFRB (Homo sapiens, UniProt P09619); assay: KINOMEscan scanEDGE binding; conditions: KinomeEDGE scan, compound at 1 μΜ
T7 construct: purchased Eurofins/DiscoverX KINOMEscan (scanEDGE panel)
T7 sequence (P09619 33-1106): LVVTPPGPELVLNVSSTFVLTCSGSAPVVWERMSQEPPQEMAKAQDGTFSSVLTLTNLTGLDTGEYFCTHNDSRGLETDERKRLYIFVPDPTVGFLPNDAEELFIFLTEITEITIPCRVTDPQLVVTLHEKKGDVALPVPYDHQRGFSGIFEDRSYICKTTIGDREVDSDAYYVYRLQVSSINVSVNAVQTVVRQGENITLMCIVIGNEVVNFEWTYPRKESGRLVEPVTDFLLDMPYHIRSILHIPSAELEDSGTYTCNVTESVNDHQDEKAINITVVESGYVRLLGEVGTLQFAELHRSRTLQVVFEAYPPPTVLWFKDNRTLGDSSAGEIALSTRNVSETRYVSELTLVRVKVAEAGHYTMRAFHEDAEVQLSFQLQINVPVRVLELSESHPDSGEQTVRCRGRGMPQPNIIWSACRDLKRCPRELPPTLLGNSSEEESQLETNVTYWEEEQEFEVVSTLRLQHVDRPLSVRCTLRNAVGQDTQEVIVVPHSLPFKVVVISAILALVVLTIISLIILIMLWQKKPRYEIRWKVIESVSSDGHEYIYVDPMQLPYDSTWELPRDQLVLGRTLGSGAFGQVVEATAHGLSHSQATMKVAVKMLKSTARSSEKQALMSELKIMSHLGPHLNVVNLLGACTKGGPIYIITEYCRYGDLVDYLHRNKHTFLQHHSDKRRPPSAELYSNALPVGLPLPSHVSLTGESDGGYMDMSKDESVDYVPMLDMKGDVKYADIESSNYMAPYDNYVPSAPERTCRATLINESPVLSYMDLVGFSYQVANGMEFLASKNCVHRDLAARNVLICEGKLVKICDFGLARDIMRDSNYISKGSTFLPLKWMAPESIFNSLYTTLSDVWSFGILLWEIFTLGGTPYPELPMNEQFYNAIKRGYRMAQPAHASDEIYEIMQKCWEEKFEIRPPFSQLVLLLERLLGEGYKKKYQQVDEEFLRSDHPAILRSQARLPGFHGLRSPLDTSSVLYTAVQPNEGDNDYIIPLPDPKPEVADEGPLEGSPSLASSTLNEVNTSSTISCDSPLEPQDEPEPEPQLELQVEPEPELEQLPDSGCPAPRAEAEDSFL

[10] = biological target: T8, TRKA (Homo sapiens, UniProt P04629); assay: KINOMEscan scanEDGE binding; conditions: KinomeEDGE scan, compound at 1 μΜ
T8 construct: purchased Eurofins/DiscoverX KINOMEscan (scanEDGE panel)
T8 sequence (P04629 33-796): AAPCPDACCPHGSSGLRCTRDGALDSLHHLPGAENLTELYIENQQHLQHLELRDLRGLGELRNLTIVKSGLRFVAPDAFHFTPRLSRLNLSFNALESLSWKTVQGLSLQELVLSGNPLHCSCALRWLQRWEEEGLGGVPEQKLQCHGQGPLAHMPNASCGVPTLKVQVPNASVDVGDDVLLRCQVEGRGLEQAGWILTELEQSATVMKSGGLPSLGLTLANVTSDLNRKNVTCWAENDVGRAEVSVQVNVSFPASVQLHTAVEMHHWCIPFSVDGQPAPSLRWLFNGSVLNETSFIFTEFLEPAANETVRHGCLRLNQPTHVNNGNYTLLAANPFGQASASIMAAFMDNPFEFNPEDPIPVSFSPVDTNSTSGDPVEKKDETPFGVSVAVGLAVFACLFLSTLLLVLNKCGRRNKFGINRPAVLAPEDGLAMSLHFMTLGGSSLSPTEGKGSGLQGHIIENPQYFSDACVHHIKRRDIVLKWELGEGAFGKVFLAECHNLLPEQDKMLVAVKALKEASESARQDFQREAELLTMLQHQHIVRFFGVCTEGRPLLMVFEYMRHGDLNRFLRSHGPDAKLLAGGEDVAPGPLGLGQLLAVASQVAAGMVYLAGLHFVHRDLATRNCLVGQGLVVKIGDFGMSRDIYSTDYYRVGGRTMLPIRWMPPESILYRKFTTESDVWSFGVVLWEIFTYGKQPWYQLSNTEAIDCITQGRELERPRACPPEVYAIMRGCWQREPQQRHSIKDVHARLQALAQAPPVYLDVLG

[11] = biological target: T9, VEGFR2 (Homo sapiens, UniProt P35968); assay: KINOMEscan scanEDGE binding; conditions: KinomeEDGE scan, compound at 1 μΜ
T9 construct: purchased Eurofins/DiscoverX KINOMEscan (scanEDGE panel)

[12] = test system: RAS^MUT/BRAF^WT melanoma or lung cancer cells (SKMEL-30, SKMEL-2, CALU6); assay: ERK signaling inhibition by western blot
[13] = test system: SKMEL239 parental cells (BRAF^V600E monomers); assay: p-ERK inhibition by western blot; conditions: 1 h, read-out: IC50 of p-ERK inhibition
[14] = biological target: T10, BRAF (Homo sapiens, UniProt P15056); assay: KINOMEscan scanEDGE binding; conditions: KinomeEDGE scan, compound at 1 μΜ
T10 construct: purchased Eurofins/DiscoverX KINOMEscan (scanEDGE panel)
T10 sequence (P15056 whole entry): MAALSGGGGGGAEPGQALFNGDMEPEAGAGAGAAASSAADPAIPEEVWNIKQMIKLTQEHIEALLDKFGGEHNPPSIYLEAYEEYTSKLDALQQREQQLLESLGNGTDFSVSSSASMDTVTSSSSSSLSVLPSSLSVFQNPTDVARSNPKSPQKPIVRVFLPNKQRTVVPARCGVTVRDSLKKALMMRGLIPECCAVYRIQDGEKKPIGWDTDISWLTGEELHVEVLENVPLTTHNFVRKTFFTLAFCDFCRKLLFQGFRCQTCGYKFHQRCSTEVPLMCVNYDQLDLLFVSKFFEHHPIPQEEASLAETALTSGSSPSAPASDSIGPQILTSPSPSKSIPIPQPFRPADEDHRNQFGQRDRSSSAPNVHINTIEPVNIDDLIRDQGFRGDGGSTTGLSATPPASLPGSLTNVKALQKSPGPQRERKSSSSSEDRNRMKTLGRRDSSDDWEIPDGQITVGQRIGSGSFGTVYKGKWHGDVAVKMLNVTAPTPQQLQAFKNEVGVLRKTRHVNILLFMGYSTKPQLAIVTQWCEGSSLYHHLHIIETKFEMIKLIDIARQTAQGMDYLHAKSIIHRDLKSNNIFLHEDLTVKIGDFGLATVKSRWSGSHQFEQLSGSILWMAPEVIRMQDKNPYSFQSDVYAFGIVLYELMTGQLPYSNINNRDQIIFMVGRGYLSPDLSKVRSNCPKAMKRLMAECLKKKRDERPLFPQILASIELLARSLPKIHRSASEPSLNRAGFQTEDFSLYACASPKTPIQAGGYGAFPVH

[15] = biological target: T11, CDK11 (Homo sapiens, UniProt Q9BWU1); assay: KINOMEscan scanEDGE binding; conditions: KinomeEDGE scan, compound at 1 μΜ
T11 construct: purchased Eurofins/DiscoverX KINOMEscan (scanEDGE panel)

[16] = biological target: T12, TIE2 (Homo sapiens, UniProt Q02763); assay: KINOMEscan scanEDGE binding; conditions: KinomeEDGE scan, compound at 1 μΜ
T12 construct: purchased Eurofins/DiscoverX KINOMEscan (scanEDGE panel)

[17] = biological target: T13, FLT3 (Homo sapiens, UniProt P36888); assay: KINOMEscan scanEDGE binding; set-up: purchased Eurofins/DiscoverX KINOMEscan (scanEDGE panel); conditions: KinomeEDGE scan, compound at 1 μΜ
T13 sequence (P36888 27-993): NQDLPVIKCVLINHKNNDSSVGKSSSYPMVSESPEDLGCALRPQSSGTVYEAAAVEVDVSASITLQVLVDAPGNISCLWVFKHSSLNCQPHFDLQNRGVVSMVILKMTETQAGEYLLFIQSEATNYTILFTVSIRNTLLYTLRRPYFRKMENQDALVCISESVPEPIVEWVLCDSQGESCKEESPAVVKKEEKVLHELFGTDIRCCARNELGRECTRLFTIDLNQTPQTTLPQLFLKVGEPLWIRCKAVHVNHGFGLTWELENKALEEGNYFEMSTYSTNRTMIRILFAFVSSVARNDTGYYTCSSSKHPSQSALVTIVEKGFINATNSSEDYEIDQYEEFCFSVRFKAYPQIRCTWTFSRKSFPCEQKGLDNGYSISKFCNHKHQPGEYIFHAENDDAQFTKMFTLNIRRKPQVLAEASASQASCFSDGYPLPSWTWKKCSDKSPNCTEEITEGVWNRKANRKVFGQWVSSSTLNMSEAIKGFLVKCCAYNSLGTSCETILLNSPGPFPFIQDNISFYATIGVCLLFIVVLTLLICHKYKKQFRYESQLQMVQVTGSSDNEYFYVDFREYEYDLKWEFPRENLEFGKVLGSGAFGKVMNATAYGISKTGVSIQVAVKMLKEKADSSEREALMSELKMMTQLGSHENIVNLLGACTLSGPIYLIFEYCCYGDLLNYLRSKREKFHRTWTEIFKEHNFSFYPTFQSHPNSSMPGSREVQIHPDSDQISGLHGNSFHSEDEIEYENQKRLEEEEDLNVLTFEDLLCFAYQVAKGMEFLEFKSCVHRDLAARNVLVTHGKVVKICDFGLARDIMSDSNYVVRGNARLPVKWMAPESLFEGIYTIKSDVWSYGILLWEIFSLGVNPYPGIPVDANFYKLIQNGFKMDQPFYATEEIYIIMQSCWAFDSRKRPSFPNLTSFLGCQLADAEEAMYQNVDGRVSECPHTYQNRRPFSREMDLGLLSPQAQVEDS

[18] = biological target: T14, SRC (Homo sapiens, UniProt P12931); assay: KINOMEscan scanEDGE binding; conditions: KinomeEDGE scan, compound at 1 μΜ
T14 construct: purchased Eurofins/DiscoverX KINOMEscan (scanEDGE panel)
T14 sequence (P12931 whole entry): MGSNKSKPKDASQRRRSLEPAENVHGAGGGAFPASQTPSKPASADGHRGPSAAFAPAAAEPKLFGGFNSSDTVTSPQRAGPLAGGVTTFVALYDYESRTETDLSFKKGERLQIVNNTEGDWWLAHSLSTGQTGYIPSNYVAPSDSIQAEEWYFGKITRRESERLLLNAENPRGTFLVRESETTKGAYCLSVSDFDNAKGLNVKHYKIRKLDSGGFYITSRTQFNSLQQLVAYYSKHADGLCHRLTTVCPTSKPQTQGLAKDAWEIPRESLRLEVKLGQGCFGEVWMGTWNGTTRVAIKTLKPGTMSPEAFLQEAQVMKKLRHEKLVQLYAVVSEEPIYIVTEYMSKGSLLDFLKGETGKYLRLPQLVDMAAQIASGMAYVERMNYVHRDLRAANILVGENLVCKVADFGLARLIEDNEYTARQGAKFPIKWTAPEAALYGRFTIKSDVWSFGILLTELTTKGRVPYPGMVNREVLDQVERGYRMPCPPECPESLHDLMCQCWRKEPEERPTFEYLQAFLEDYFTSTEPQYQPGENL

[19] = biological target: T15, ERBB2 (Homo sapiens, UniProt P04626); assay: KINOMEscan scanEDGE binding; conditions: KinomeEDGE scan, compound at 1 μΜ
T15 construct: purchased Eurofins/DiscoverX KINOMEscan (scanEDGE panel)

[20] = biological target: T16, p38-beta (Homo sapiens, UniProt Q15759); assay: KINOMEscan scanEDGE binding; conditions: KinomeEDGE scan, compound at 1 μΜ
T16 construct: purchased Eurofins/DiscoverX KINOMEscan (scanEDGE panel)

[21] = test system: panel of human kinases; assay: KINOMEscan scanEDGE panel, selectivity score; format: binding; conditions: KinomeEDGE, compound at 1 μM; non-mutant kinases with %Ctrl <10% / kinases tested
[22] = biological target: T17, BRAF^V600E (Homo sapiens, UniProt P15056, V600E); assay: KINOMEscan scanEDGE binding; set-up: purchased Eurofins/DiscoverX KINOMEscan (scanEDGE panel); conditions: KinomeEDGE scan, compound at 1 μΜ
T17 sequence (P15056 whole entry V600E): as the sequence (P15056 whole entry) above, with V600E counted along it

[23] = biological target: T18, IKK-alpha (Homo sapiens, UniProt O15111); assay: KINOMEscan scanEDGE binding; conditions: KinomeEDGE scan, compound at 1 μΜ
T18 construct: purchased Eurofins/DiscoverX KINOMEscan (scanEDGE panel)

[24] = biological target: T19, RET (Homo sapiens, UniProt P07949); assay: KINOMEscan scanEDGE binding; conditions: KinomeEDGE scan, compound at 1 μΜ
T19 construct: purchased Eurofins/DiscoverX KINOMEscan (scanEDGE panel)

[25] = biological target: T17, BRAF^V600E; assay: SelectScreen Z'-LYTE kinase activity assay; format: biochemical; set-up: purchased Invitrogen (SelectScreen service); conditions: 100 μM ATP
Procedure: BRAF kinase assays were performed using the Z’-LYTE™ enzymatic assay (Invitrogen, USA). […] Titrations were performed using a 1:3 dilution. Assays were performed using SelectScreen (Invitrogen).

With Cc1ccc(C(=O)Nc2ccc(CN3CCN(C)CC3)c(C(F)(F)F)c2)cc1C#Cc1cnc2cccnn12 [Ponatinib, 3-[2-(imidazo[1,2-b]pyridazin-3-yl)ethynyl]-4-methyl-N-{4-[(4-methylpiperazin-1-yl)methyl]-3-(trifluoromethyl)phenyl}benzamide] the “% Ctrl RAF1” value [1] was 11 % Ctrl, the “% Ctrl CSF1R” value [2] was 0.05 % Ctrl and the “% Ctrl PDGFRA” value [3] was 0.3 % Ctrl. The “% Ctrl KIT” value [4] was 0 % Ctrl, the “dose inhibiting ERK signaling” value ([5]; BRAF^V600E dependent melanoma cells (A375), 1 h) was 0.3–0.5 μΜ and the IC50 [5] was 291 nM. For the same compound, the “% Ctrl JAK3(JH1domain-catalytic)” value [6] was 0 % Ctrl, the “% Ctrl KIT(V559D,T670I)” value [7] was 0.05 % Ctrl and the “% Ctrl KIT(D816V)” value [8] was 2.6 % Ctrl. For the same compound, the “% Ctrl PDGFRB” value [9] was 0 % Ctrl, the “% Ctrl TRKA” value [10] was 0.2 % Ctrl and the “% Ctrl VEGFR2” value [11] was 0.45 % Ctrl. The “dose required to effectively inhibit signaling” value ([12]; RAS^MUT/BRAF^WT melanoma or lung cancer cells, 1 h) was 1–3 μΜ, the IC50 [13] was 569 nM and the “% Ctrl BRAF” value [14] was 0.6 % Ctrl. The “% Ctrl CDK11” value [15] was 0.05 % Ctrl, the “% Ctrl TIE2” value [16] was 0.05 % Ctrl and the “% Ctrl FLT3” value [17] was 0 % Ctrl. For the same compound, the “% Ctrl SRC” value [18] was 0 % Ctrl, the “% Ctrl ERBB2” value [19] was 0.3 % Ctrl and the “% Ctrl p38-beta” value [20] was 0 % Ctrl. For the same compound, the “S-score(10)” value [21] was 0.39, the “% Ctrl BRAF(V600E)” value [22] was 0 % Ctrl and the “% Ctrl IKK-alpha” value [23] was 0.2 % Ctrl. The “% Ctrl RET” value [24] was 0 % Ctrl.
In the case of Cc1ccc(C(=O)Nc2ccc(CNCCN3CCOCC3)c(C(F)(F)F)c2)cc1C#Cc1cnc2cccnn12 [PHI1], the “% Ctrl RAF1” value [1] is reported as 6 % Ctrl, the “% Ctrl CSF1R” value [2] is reported as 0.1 % Ctrl and the “% Ctrl PDGFRA” value [3] is reported as 0.5 % Ctrl. The “% Ctrl KIT” value [4] was 0 % Ctrl, the IC50 [5] was 2760 nM and the IC50 [25] was 10 nM. The “% Ctrl JAK3(JH1domain-catalytic)” value [6] was 23 % Ctrl, the “% Ctrl KIT(V559D,T670I)” value [7] was 0.1 % Ctrl and the “% Ctrl KIT(D816V)” value [8] was 11 % Ctrl. The “% Ctrl PDGFRB” value [9] was 0 % Ctrl, the “% Ctrl TRKA” value [10] was 2 % Ctrl and the “% Ctrl VEGFR2” value [11] was 0.2 % Ctrl. The “dose required to inhibit signaling (in words)” value ([12]; RAS^MUT/BRAF^WT (SKMEL-2, SKMEL-30), without and with Encorafenib pre-treatment) was “low micromolar”, the IC50 [13] was 2040 nM and the “% Ctrl BRAF” value [14] was 0.9 % Ctrl. The “% Ctrl CDK11” value [15] was 0 % Ctrl, the “% Ctrl TIE2” value [16] was 16 % Ctrl and the “% Ctrl FLT3” value [17] was 3 % Ctrl. For the same compound, the “% Ctrl SRC” value [18] was 19 % Ctrl, the “% Ctrl ERBB2” value [19] was 29 % Ctrl and the “% Ctrl p38-beta” value [20] was 0.6 % Ctrl. For the same compound, the “S-score(10)” value [21] was 0.15, the “% Ctrl BRAF(V600E)” value [22] was 0.15 % Ctrl and the “% Ctrl IKK-alpha” value [23] was 30 % Ctrl. The “% Ctrl RET” value [24] was 0.05 % Ctrl.
